Patent US10308643B2, “Heterocyclic compound” (Takeda Pharmaceutical Company Limited, priority 2015, dated 2019)

Tests used:
Type in all cases: biochemical
[1] = target: T1, HDAC6 enzyme (Homo sapiens, UniProt Q9UBN7); assay: HDAC1/6 Enzyme Inhibitory Assay (HDAC-Glo I/II Assay kit), HDAC6; conditions: 1 μM test compound, wells without enzyme = 100% inhibition; for inhibition at 1 µM: read-out: HDAC6 inhibitory rate (%) (1 μM)
T1 construct: transducing full length HDAC1 and HDAC6 genes into Sf-9 insect cells; GST; purchased SignalChem; host or cells: Sf-9 insect cells
T1 sequence (Q9UBN7 1-1215): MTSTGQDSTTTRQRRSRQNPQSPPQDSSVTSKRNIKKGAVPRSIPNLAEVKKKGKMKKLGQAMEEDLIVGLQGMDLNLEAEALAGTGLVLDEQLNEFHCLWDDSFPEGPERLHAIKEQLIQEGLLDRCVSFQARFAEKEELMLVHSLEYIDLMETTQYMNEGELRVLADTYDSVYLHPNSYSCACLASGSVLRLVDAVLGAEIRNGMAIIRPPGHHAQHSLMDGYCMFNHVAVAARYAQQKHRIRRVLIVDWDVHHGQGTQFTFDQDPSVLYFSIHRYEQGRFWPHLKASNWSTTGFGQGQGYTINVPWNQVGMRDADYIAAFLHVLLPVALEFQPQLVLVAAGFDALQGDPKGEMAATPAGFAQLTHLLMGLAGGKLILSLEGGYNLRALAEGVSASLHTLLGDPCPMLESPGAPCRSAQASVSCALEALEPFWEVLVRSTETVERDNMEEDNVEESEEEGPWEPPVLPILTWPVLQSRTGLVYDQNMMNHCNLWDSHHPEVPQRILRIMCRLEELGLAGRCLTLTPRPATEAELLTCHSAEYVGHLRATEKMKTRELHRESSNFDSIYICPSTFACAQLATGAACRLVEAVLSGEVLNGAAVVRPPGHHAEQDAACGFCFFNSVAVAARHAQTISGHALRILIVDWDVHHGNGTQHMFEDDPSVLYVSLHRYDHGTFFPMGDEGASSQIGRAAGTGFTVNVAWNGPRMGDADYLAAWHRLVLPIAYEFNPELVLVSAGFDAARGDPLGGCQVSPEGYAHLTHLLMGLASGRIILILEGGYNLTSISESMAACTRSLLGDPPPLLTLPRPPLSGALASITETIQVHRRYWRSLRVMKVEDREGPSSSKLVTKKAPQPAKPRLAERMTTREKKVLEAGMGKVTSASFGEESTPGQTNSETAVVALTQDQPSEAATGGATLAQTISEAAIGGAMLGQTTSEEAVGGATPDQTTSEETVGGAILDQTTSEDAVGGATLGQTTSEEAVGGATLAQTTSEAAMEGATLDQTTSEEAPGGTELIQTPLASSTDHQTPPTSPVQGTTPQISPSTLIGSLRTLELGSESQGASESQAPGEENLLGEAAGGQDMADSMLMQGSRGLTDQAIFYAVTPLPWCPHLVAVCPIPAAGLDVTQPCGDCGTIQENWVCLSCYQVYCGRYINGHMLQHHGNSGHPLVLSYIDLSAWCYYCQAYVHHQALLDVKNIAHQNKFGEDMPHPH
Outline: (§1)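 Full-length human HDAC1 or HDAC6, GST-purified from Sf-9 cells, was preincubated with compound for 60 min at room temperature in Tris-HCl pH 7.5 buffer with MgCl2, KCl, NaCl, glutathione and Tween-20. HDAC-Glo I/II substrate-developer was then added and reacted for 20 min before luminescence was read. Inhibition was set relative to no-enzyme wells as 100% inhibition.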

[2] = target: T2, HDAC9 enzyme (Homo sapiens, UniProt Q9UKV0); assay: HDAC9 Enzyme Inhibitory Assay (HDAC-Glo class IIa); conditions: 1 μM test compound, wells without enzyme = 100% inhibition; for inhibition at 1 µM: read-out: HDAC9 inhibitory rate (%) (1 μM)
T2 construct: transducing full length HDAC9 gene into Sf-9 insect cells; made in house; host or cells: Sf-9 insect cells
Outline: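 Full-length human HDAC9 from Sf-9 cells, Ni-NTA purified, preincubated with compound for 60 min at room temperature in Tris-HCl pH 7.5 buffer (MgCl2, KCl, NaCl, glutathione, Tween-20). HDAC-Glo class IIa substrate-developer added; luminescence read after 20 min, with no-enzyme wells defining 100% inhibition.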

[3] = target: T3, HDAC1 enzyme (Homo sapiens, UniProt Q13547); assay: HDAC1/6 Enzyme Inhibitory Assay (HDAC-Glo I/II Assay kit), HDAC1; conditions: 1 μM test compound, wells without enzyme = 100% inhibition; for inhibition at 1 µM: read-out: HDAC1 inhibitory rate (%) (1 μM)
T3 construct: transducing full length HDAC1 and HDAC6 genes into Sf-9 insect cells; GST; purchased SignalChem; host or cells: Sf-9 insect cells
Outline: as §1

T2 sequence (Q9UKV0 whole entry, species assumed): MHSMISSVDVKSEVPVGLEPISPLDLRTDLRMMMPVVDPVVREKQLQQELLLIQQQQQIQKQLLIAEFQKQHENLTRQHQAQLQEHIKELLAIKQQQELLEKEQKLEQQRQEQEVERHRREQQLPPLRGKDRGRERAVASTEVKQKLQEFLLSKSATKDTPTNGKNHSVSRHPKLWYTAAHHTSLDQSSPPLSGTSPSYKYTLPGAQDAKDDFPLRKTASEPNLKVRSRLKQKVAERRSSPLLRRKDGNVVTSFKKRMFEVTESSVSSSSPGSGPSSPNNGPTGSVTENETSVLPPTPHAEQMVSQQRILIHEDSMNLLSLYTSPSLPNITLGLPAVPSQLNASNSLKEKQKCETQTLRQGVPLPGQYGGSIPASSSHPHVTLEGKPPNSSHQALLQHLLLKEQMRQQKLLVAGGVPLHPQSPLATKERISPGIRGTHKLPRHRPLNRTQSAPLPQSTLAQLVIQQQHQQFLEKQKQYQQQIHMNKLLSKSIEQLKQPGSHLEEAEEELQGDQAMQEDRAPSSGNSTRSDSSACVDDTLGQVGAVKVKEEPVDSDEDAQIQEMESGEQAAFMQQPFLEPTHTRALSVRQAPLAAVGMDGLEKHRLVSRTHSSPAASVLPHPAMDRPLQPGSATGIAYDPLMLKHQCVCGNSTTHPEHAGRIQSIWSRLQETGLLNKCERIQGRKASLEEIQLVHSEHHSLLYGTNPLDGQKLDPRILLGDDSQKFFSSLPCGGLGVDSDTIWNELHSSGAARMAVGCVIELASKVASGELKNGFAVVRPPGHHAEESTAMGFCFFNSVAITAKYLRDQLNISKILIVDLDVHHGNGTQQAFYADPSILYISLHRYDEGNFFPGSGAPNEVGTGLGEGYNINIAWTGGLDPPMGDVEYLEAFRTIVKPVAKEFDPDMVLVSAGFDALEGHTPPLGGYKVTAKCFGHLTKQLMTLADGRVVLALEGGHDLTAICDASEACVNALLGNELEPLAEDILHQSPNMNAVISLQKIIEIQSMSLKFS
T3 sequence (Q13547 whole entry): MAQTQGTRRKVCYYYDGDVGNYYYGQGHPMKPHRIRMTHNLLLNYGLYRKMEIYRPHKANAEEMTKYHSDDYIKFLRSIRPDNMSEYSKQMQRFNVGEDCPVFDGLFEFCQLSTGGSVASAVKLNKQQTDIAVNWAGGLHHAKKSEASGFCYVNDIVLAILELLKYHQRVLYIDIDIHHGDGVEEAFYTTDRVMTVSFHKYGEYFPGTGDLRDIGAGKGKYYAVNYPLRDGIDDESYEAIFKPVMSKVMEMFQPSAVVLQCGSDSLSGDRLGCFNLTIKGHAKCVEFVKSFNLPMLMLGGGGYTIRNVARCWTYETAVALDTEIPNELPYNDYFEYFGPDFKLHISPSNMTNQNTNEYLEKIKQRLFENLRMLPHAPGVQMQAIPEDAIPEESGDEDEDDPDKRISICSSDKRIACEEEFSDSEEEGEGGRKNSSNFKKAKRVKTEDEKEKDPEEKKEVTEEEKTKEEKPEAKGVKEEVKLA

inhibition at 1 µM [1] [%] | inhibition at 1 µM [2] [%] | inhibition at 1 µM [3] [%] | HDAC6 inhibitory rate (%) (1 μM) ([1]; 1 µM) | HDAC9 inhibitory rate (%) (1 μM) ([2]; 1 µM) | HDAC1 inhibitory rate (%) (1 μM) ([3]; 1 µM) | SMILES
99 | 99 | 94 |  |  |  | O=C1c2cc(-c3noc(C(F)(F)F)n3)ccc2CN1[C@@H]1CCNC[C@H]1c1ccc(F)c(F)c1 (relative stereo) [Example 46, 2-(trans-3-(3,4-difluorophenyl)piperidin-4-yl)-6-(5-(trifluoromethyl)-1,2,4-oxadiazol-3-yl)isoindolin-1-one]
76 | 20 | 1 |  |  |  | O=C(N[C@@H]1CCCC[C@H]1N1Cc2ccc(-c3noc(C(F)(F)F)n3)cc2C1=O)N1CC2(COC2)C1 [Example 161, N-((1R,2R)-2-(1-oxo-6-(5-(trifluoromethyl)-1,2,4-oxadiazol-3-yl)-1,3-dihydro-2H-isoindol-2-yl)cyclohexyl)-2-oxa-6-azaspiro[3.3]heptane-6-carboxamide]
100 | 60 | 12 |  |  |  | O=C(N[C@@H]1COCC[C@H]1N1Cc2ccc(-c3noc(C(F)(F)F)n3)cc2C1=O)[C@@H]1CC1(F)F [Example 149, (1S)-2,2-difluoro-N-((3S,4R)-4-(1-oxo-6-(5-(trifluoromethyl)-1,2,4-oxadiazol-3-yl)-1,3-dihydro-2H-isoindol-2-yl)tetrahydro-2H-pyran-3-yl)cyclopropanecarboxamide]
 |  |  | 82 | 58 | 12 | O=C(N[C@@H]1CCOC[C@@H]1N1Cc2ccc(-c3noc(C(F)(F)F)n3)cc2C1=O)C1CC1(F)F (single isomer, unassigned) [Example 212, (1R) or (1S)-2,2-difluoro-N-((3R,4R)-3-(1-oxo-6-(5-(trifluoromethyl)-1,2,4-oxadiazol-3-yl)-1,3-dihydro-2H-isoindol-2-yl)tetrahydro-2H-pyran-4-yl)cyclopropanecarboxamide]
87 | 79 | 11 |  |  |  | CC(=O)N1CC(N2Cc3ncc(-c4noc(C(F)(F)F)n4)cc3C2=O)C1 [Example 75, 6-(1-acetylazetidin-3-yl)-3-(5-(trifluoromethyl)-1,2,4-oxadiazol-3-yl)-6,7-dihydro-5H-pyrrolo[3,4-b]pyridin-5-one]
98 | 85 | 52 |  |  |  | O=C1c2cc(-c3noc(C(F)(F)F)n3)ccc2CN1[C@@H]1CCCC[C@H]1c1ccccc1 (relative stereo) [Example 17, trans-2-(2-phenylcyclohexyl)-6-(5-(trifluoromethyl)-1,2,4-oxadiazol-3-yl)isoindolin-1-one]
96 | 19 | 1 |  |  |  | O=C(N[C@@H]1CCCC[C@H]1N1Cc2ccc(-c3noc(C(F)(F)F)n3)cc2C1=O)C1CCOCC1 [Example 37, N-((1R,2R)-2-(1-oxo-6-(5-(trifluoromethyl)-1,2,4-oxadiazol-3-yl)-1,3-dihydro-2H-isoindol-2-yl)cyclohexyl)tetrahydro-2H-pyran-4-carboxamide]
98 | 39 | 5 |  |  |  | O=C(N[C@@H]1CCCC[C@H]1N1Cc2ccc(-c3noc(C(F)(F)F)n3)cc2C1=O)N1CCC1 [Example 159, N-((1R,2R)-2-(1-oxo-6-(5-(trifluoromethyl)-1,2,4-oxadiazol-3-yl)-1,3-dihydro-2H-isoindol-2-yl)cyclohexyl)azetidine-1-carboxamide]
99 | 69 | 14 |  |  |  | CC1(C(=O)N[C@@H]2CCCC[C@H]2N2Cc3ccc(-c4noc(C(F)(F)F)n4)cc3C2=O)CC1(F)F (stereo partly drawn) [Example 111, 2,2-difluoro-1-methyl-N-((1R,2R)-2-(1-oxo-6-(5-(trifluoromethyl)-1,2,4-oxadiazol-3-yl)-1,3-dihydro-2H-isoindol-2-yl)cyclohexyl) cyclopropanecarboxamide]
98 | 86 | 16 |  |  |  | O=C(N[C@H]1CCOC[C@@H]1N1Cc2ccc(-c3noc(C(F)(F)F)n3)cc2C1=O)[C@@H]1CC1(F)F [Example 201, (1S)-2,2-difluoro-N-((3R,4S)-3-(1-oxo-6-(5-(trifluoromethyl)-1,2,4-oxadiazol-3-yl)-1,3-dihydro-2H-isoindol-2-yl)tetrahydro-2H-pyran-4-yl)cyclopropanecarboxamide]
96 | 99 | 95 |  |  |  | COc1ccc([C@@H]2CNCC[C@H]2N2Cc3ccc(-c4noc(C(F)(F)F)n4)cc3C2=O)cc1 (relative stereo) [Example 55, 2-(trans-3-(4-methoxyphenyl)piperidin-4-yl)-6-(5-(trifluoromethyl)-1,2,4-oxadiazol-3-yl)isoindolin-1-one]
99 | 51 | 6 |  |  |  | O=C(N[C@@H]1CCCC[C@H]1N1Cc2ccc(-c3noc(C(F)(F)F)n3)cc2C1=O)[C@@H]1CC1(F)F [Example 147, (1S)-2,2-difluoro-N-((1R,2R)-2-(1-oxo-6-(5-(trifluoromethyl) -1,2,4-oxadiazol-3-yl)-1,3-dihydro-2H-isoindol-2-yl)cyclohexyl)cyclopropanecarboxamide]
99 | 81 | 13 |  |  |  | O=C(c1ccccc1)N1CCC(N2Cc3ncc(-c4noc(C(F)(F)F)n4)cc3C2=O)CC1 [Example 67, 6-(1-benzoylpiperidin-4-yl)-3-(5-(trifluoromethyl)-1,2,4-oxadiazol-3-yl)-6,7-dihydro-5H-pyrrolo[3,4-b]pyridin-5-one]
86 | 30 | 0 |  |  |  | O=C1C[C@H](C(=O)N[C@@H]2CCCC[C@H]2N2Cc3ccc(-c4noc(C(F)(F)F)n4)cc3C2=O)CN1 [Example 130, (3S)-5-oxo-N-((1R,2R)-2-(1-oxo-6-(5-(trifluoromethyl)-1,2,4-oxadiazol-3-yl)-1,3-dihydro-2H-isoindol-2-yl)cyclohexyl)pyrrolidine-3-carboxamide]
98 | 97 | 79 |  |  |  | CC(C)(C)OC(=O)N1CC[C@@H](N2Cc3ncc(-c4noc(C(F)(F)F)n4)cc3C2=O)[C@H](c2ccccc2)C1 [Example 88, tert-butyl (3R,4R)-4-(5-oxo-3-(5-(trifluoromethyl)-1,2,4-oxadiazol-3-yl)-5,7-dihydro-6H-pyrrolo[3,4-b]pyridin-6-yl)-3-phenylpiperidine-1-carboxylate]
68 | 48 | 0 |  |  |  | CC(C)(C)OC(=O)N1CC[C@H](N2Cc3ccc(-c4noc(C(F)(F)F)n4)cc3C2=O)[C@H](c2ccccc2)C1 [Example 14, tert-butyl (3R,4S)-4-(1-oxo-6-(5-(trifluoromethyl)-1,2,4-oxadiazol-3-yl)-1,3-dihydro-2H-isoindol-2-yl)-3-phenylpiperidine-1-carboxylate]
100 | 48 | 6 |  |  |  | CC(C)(C)OC(=O)N1CC(C)(C(=O)N[C@@H]2CCCC[C@H]2N2Cc3ccc(-c4noc(C(F)(F)F)n4)cc3C2=O)C1 [Example 197, tert-butyl 3-methyl-3-(((1R,2R)-2-(1-oxo-6-(5-(trifluoromethyl)-1,2,4-oxadiazol-3-yl)-1,3-dihydro-2H-isoindol-2-yl)cyclohexyl)carbamoyl)azetidine-1-carboxylate]
